From US20030129189A1, “Tumor necrosis factor-gamma” (priority 1994, published 2003)

How the values were obtained:
[1] = tested on: bovine pulmonary artery endothelial cells (BPAEC); test: Endothelial cell apoptosis (morphology, Hoechst staining, DNA fragmentation); format: cell-based
Protocol: [Bovine pulmonary artery endothelial cells were incubated with various concentrations of TNF-gamma for 48 hours. The apoptosis was assessed by nuclear staining with Hoechst 33342 fluorescence dye (10 mg/ml).] […] [U937 cells were transfected using lipofectamine (following manufacturer's instruction) with 0.2 mg of reporter plasmid (NF-kappaB-SEAP). The transfected U937 cells were collected and added to the 96-well plate ([…]/well) with various concentrated of TNF-gamma. After Incubation at 37° C. for 72 hr, the NF-kappaB activity was measured with luminometer at absorbance of 450 nm.]
Bovine pulmonary artery endothelia cells (BPAEC) were incubated with various concentrations of TNF-gamma for 48 hours. Apoptosis was assessed morphologically and by nuclear staining with Hoechst 33342 fluorescence dye (10 mg/ml) in triplicate. Live and apoptotic cells were scored in four random fields, about 1,000 cells were counted. The DNA fragmentation was analyzed as described previously.
BPAEC were obtained from the American Type Culture Collection (Rockville, Md., USA). The cells were grown in DMEM supplemented with 10% heat-inactivated FCS in a humidified environment of 5% CO2/[…] at 37° C. as previously described (Yue, T. L., et al., Mol. Pharmacol. 51:951-962 (1997)). Cells at a subconfluent density were used. Before experiments, the medium was changed to DMEM contained 2% FCS. BPAEC from passages 17-20 were used in all studies.
To quantify cells undergoing apoptosis, cell monolayers were fixed and stained with Hoechst […] (Molecular probe, Eugene, Oreg., USA) as described previously (Yue, T. L., et al., Mol. Pharmacol. 51:951-962 (1997)). The morphological features of apoptosis (cell shrinkage, chromatin condensation, blebbing, and fragmentation) were monitored by fluorescence microscopy. Transmission electron microscopy study was done as reported previously (Yue, T. L., et al., Mol. Pharmacol. 51:951-962 (1997)).
DNA ladder: Cells treated with vehicle or TNF-gamma-alpha were lysed in lysis buffer containing 100 mM NaCl, 10 mM Tris-HCl, pH 8.0, 2.5 mM EEDTA, 0.5% SDS, and 100 micrograms/ml […]. The lysates were incubated at 55° C. for 16 h. After incubation, the lysates were gently extracted three times with pheno/chloroform/isoamyl alcohol, precipitated in ethanol, treated with DNAse-free RNAse, re-extracted, and precipitated again as described previously. DNA electrophoresis was carried out in 1.8% agarose gels containing ethidium bromide, and DNA fragmentations were visualized under ultraviolet light.
In situ end-labeling (TUNEL): BPAEC were cultured in two-chamber slides (Nunc) and treated with TNF-gamma-alpha for 8 to 24 h. In situ detection of apoptotic cells was performed by using terminal deoxyribonucleotide transferase-mediated dUTP nick end labeling with an ApopTag in situ apoptosis detection kit (Oncor) following the manufacturer's recommendation.
The cells were plated in two-chamber slides. The cells were cotransfected with 0.5 μg/ml of Pegfp-c-1 (Clontech; Li, Y. and Horwitz, M. S. Biotechnology 23:1026-1028) as a fluorescent marker of transfected cells together with 1 μg/ml of either the empty cloning vector pcDNA1 (control) or the dominant-interfering c-Jun mutant pcDNA1-FlagΔ169 (Xia, Z., et al., Science 270:1326-1331 (1995)) using Calphos Maximizer Transfection Kit (Clontech) according to the manufacturer's recommendation. Following transfection, the cells were allowed to recover in complete medium for 24 h. The cells were treated with TNF-gamma-alpha and the number of apoptotic cells was assessed by nuclear staining after fixation as described in Methods.

[2] = tested on: bFGF-induced corneal neovascularization; test: Corneal angiogenic assay; format: in vivo, rat
Excerpt: Basic FGF (“bFGF”) has been tested in this corneal angiogenic assay in various research laboratories for a variety of purposes. It has been shown that bFGF can induce significant angiogenesis in corneas (e.g., in rabbits, rats and mice). Based on the previous studies, bFGF was used in our study of TNF-gamma as an angiogenic factor to induce the growth of blood vessels in rat corneas.
An incision, 1-1.5 mm in length, is made in the center of the cornea with a microsurgery scalpel blade.
Starting at the incision, a micropocket is created between the collagenous layers of the corneal stroma with a Castroviego cyclodialysis spatula. This pocket extends to a point 1-2 mm from the capillary bed at the corneal-scleral limbus.
bFGF, which is incorporated 1:1 into non-inflammatory Hydron polymer (available from Interferon Sciences, New Brunswick, N.J.), is implanted into the pocket.
Five or seven days after corneal implantation, corneal blood perfusion with colloidal carbon is performed. Corneas are then harvested, fixed, flattened, mounted and photographed for morphology.
An image analysis system (IPLab) is used to quantify the corneal angiogenesis. The corneal surface area, which is covered by the new blood vessels, is quantified and used in our current study. After corneal implantation surgery, TNF-gamma, angiostatin or PBS in a volume of 25 microliters was injected into the conjunctival region adjacent to the implantation site. Based on molarities of TNF-gamma and angiostatin, 10 micrograms of TNF-gamma or 5 micrograms of angiostatin were given respectively four times, once a day, during the first four days post-surgery. TNF-gamma and angiostatin were prepared in PBS.
bFGF was used to induce neovascularization of the cornea from preexisting pericorneal limbal vessels in two different versions of the assay. First, corneas were surgically implanted with hydrogel plugs containing bFGF. […] In a separate study using an alternate version of this assay, both bFGF and treatment protein were co-administered on a nitrocellulose filter disk implanted within the rat corneal stroma. […] In both assays, the surface area of the angiogenic response was quantitated from digital images of treated corneas five days following implantation.

[3] = molecular target: T1, recombinant, untagged TNF-gamma-beta protein (aa 72-251) (human, UniProt O95150 72-251); test: BIAcore 3000, DR3-Fc immobilised on CM5 chip, TNF-gamma-beta in flow, 1:1 model, three batches
T1 construct: they are put here; also called TL1β; non-tagged TNF-gamma-beta
T1 sequence: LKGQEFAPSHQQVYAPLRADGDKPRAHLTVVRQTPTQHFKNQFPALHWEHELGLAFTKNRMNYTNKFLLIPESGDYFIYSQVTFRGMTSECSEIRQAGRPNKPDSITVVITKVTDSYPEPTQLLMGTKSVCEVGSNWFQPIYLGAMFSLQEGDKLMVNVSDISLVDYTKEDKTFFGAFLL
Protocol: TNFR-Fc were covalently immobilized to the BIAcore sensor chip (CM5 chip) via amine groups using N-ethyl-N′-(dimethylaminopropyl) carbodiimide/N-hydroxysuccinimide chemistry. […] The amount of bound protein was determined during washing of the flow cell with HBS buffer (10 mM HEPES, pH 7.4, 150 mM NaCl, 3.4 mM EDTA, 0.005% Surfactant P20). The flow cell surface was regenerated by displacing bound protein by washing with 20 microliters of 10 mM glycine-HCl, pH 2.3. For kinetic analysis, the on and off rates were determined using the kinetic evaluation program in BIAevaluation 3 software using a 1:1 binding model and the global analysis method.

TNF-gamma-beta = molecular target: T2, TNF-gamma-beta (Homo sapiens, UniProt O95150); test: FACS binding of receptor-Fc proteins to cells expressing full length TNF-gamma-beta
T2 construct: expressed in transfected cells
T2 sequence (O95150 1-251): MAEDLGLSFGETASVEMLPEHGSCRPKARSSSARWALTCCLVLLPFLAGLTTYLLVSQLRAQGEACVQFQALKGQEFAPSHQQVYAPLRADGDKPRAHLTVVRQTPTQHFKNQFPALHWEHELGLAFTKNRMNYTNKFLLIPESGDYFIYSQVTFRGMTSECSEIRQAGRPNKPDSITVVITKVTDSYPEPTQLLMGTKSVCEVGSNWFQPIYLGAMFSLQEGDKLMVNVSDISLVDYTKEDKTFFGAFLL
Protocol: These cells were used to screen the Fc-fusion form of the extracellular domain of TNFR family members, including TNFR1, Fas, HveA, DR3, DR4, DR5, DR6, DcR1, DcR2, TR6, OPG, RANK, AITR, TAC1, CD40, and OX40. […] TR6 has been previously described as a decoy receptor (Pitti et al., Nature 396:699-703 (1998); Yu et al., J. Biol. Chem. 274:13733-6 (1999)) capable of competing with Fas and HveA for binding of FasL and LIGHT, respectively.
Cells resistant to 0.5 mg/ml Genticin (Invitrogen) were selected and expanded. Expression of TNF-gamma-beta mRNA was confirmed by quantitative RT-PCR analysis and surface expression of TNF-gamma-beta protein confirmed by FACS analyses using TNF-gamma-beta monoclonal antibodies.
One million cells, in 0.1 ml of FACS buffer (PBS, 0.1% BSA, 0.1% NaN3), were incubated with 0.1-1 microgram of protein or antibody at RT for 15 min. The cells were washed with 3 ml of FACS buffer, reacted with biotinylated primary antibody, and stained with PE-conjugated secondary antibody at RT for 15 min. Cells were then washed again, resuspended in 0.5 microgram/ml of propidium iodide, and live cells were gated and analyzed on a FACScan using the CellQuest software (BD Biosciences).

C[S+]([O-])c1ccc(-c2nc(-c3ccncc3)c(-c3ccc(F)cc3)[nH]2)cc1 (stereo not drawn) [SB203580, reference compound]
reduction of TNF-gamma-alpha-induced BPAEC apoptosis ([1]; 3 μM): 33% | reduction of TNF-gamma-alpha-induced BPAEC apoptosis ([1]; 10 μM): 51%

ZVAD-fmk [reference compound]
effect of caspase inhibitor on TNF-gamma-alpha-induced BPAEC apoptosis ([1]; added 1 h prior to TNF-gamma-alpha, Ac-YYAD-CHO up to 100 μM): attenuated

angiostatin
angiogenic process in bFGF-implanted corneas ([2]; bFGF (300 ng) implant, conjunctival injection once a day for four days, 10 micrograms TNF-gamma or 5 micrograms angiostatin, seven days after surgery, vs PBS): significantly slowed down the angiogenic process | maximal decrease in rat corneal neovascularization induced by bFGF ([2]; comparison of TNF-gamma-beta and angiostatin): similar | vessel growth in PBS-implanted corneas ([2]; multiple conjunctival injections): no obvious vessel growth

B1: DR3-Fc (extracellular domain of human DR3, aa 1-199, fused to the Fc domain of human IgG1) (Fc fusion, UniProt Q93038 25-199, looked up)
chain: QGGTRSPRCDCAGDFHKKIGLFCCRGCPAGHYLKAPCTEPCGNSTCLVCPQDTFLAWENHHNSECARCQACDEQASQVALENCSAVADTRCGCKPGWFVECQVSQCVSSSPFYCQPCLDCGALHRHTRLLCSRRDTDCGTCLPGFYEHGDGCVSCPTSTLGSCPERCAAVCGWRQ
notes: range 1-199; not shown: Fc domain of human IgG1, fused in-frame to the C-terminus of the receptor part
Kd [3]: 6.45 nM | kon [3]: 639000 M⁻¹ s⁻¹

B2: HveA-Fc: extracellular domain of HveA (aa 1-192) fused to Fc of human IgG1 (protein)
chain: LPSCKEDEYPVGSECCPKCSPGYRVKEACGELTGTVCEPCPPGTYIAHLNGLSKCLQCQMCDPAMGLRASRNCSRTENAVCGCSPGHFCIVQDGDHCAACRAYATSSPGQRVQKGGTESQDTLCQNCPPGTFSPNGTLEECQHQTKCSWLVTKA
modifications: left off: a dimerising Fc or GST
notes: extracellular domain of HveA (aa 1-192) fused to Fc of human IgG1
binding to cells expressing TNF-gamma-beta (FACS) (TNF-gamma-beta): did not bind

B3: TR6: non-tagged TNFR-6 alpha (DcR3) decoy receptor protein (protein)
chain: VAETPTYPWRDAETGERLVCAQCPPGTFVQRPCRRDSPTTCGPCPPRHYTQFWNYLERCRYCNVLCGEREEEARACHATHNRACRCRTGFFAHAGFCLEHASCPPGAGVIAPGTPSQNTQCQPCPPGTFSASSSSSEQCQPHRNCTALGLALNVPGSSSHDTLCTSCTGFPLSTRVPGAEECERAVIDFVAFQDISIKRLQRLLQALEAPEGWGPTPRAGRAALQLKLRRRLTELLGAQDGALLVRLLQALRVARMPGLERSVRERFLPVH
competition with DR3-Fc for binding to TNF-gamma-beta expressing cells (TNF-gamma-beta; 2:1 molar ratio of non-tagged TR6 and DR3-Fc): no binding of DR3-Fc was detected

B4: sTNFR1: Mouse soluble TNF receptor 1 from R&D Systems (protein, UniProt P25118 30-212, looked up)
extracellular domain: LVPSLGDREKRDSLCPQGKYVHSKNNSICCTKCHKGTYLVSDCPSPGRDTVCRECEKGTFTASQNYLRQCLSCKTCRKEMSQVEISPCQADKDTVCGCKENQFQRYLSETHFQCVDCSPCFNGTVTIPCKETQNTVCNCHAGFFLRESECVPCSHCKKNEECMKLCLPPPLANVTNPQDSGTA
modifications: extracellular domain
notes: Mouse soluble TNF receptor 1 from R&D Systems
effect on TNF-gamma-alpha-induced apoptosis ([1]; BPAEC): Neither sTNFR1 nor sTNFR2 showed effect | effect on TNFa-induced apoptosis ([1]; BPAEC, same condition): reduced by sTNFR1 significantly
